Reference: paper PMC5971037, “Synthesis and evaluation of antimicrobial, antitubercular and anticancer activities of 2-(1-benzoyl-1H-benzo[d]imidazol-2-ylthio)-N-substituted acetamides” (Chemistry Central Journal, 2018)
In brackets after ≈: the same amount, converted by molar mass. Read-outs that look alike come from different tables or passages of the source.

Tests used:
[1] = tested on: E. coli; assay: Tube dilution MIC; details: Escherichia coli, 24 h, read-out: MIC E. coli
[2] = tested on: HCT116 (human colorectal) cell line; assay: Sulforhodamine-B (SRB) cytotoxicity assay; type: cell-based
[3] = tested on: A. niger; assay: MFC by subculturing; type: cell-based
Description: (§1) The minimum bactericidal concentration (MBC) and minimum fungicidal concentration (MFC) of the synthesized benzimidazole derivatives was determined by subculturing 100 µl of culture from each tube that remained clear in MIC determination onto sterilized petri-plates containing fresh agar medium. The petri-plates were incubated and analyzed for microbial growth visually.

[4] = tested on: C. albicans; assay: MFC by subculturing; type: cell-based
Description: as §1

[5] = tested on: A. niger; assay: microbe, parasite or virus in culture; details: Aspergillus niger, 168 h, read-out: MIC A. niger
[6] = tested on: M. tuberculosis H37Rv; assay: MIC by microplate alamar blue assay; type: cell-based; details: Mycobacterium tuberculosis, NA = no activity, read-out: MIC against M. tuberculosis H37Rv
[7] = tested on: B. subtilis; assay: Tube dilution MIC; details: Bacillus subtilis, 24 h, read-out: MIC B. subtilis
[8] = tested on: Gram positive as well as Gram negative bacterial species; assay: Tube dilution MIC, bacteria overall; type: cell-based
[9] = tested on: S. aureus; assay: Tube dilution MIC; details: Staphylococcus aureus, 24 h, read-out: MIC S. aureus
[10] = tested on: B. cereus; assay: Tube dilution MIC; details: Bacillus cereus, 24 h, read-out: MIC B. cereus
[11] = tested on: M. tuberculosis H37Rv (NCFT/TB/537); assay: Well diffusion susceptibility test (zone of inhibition); type: cell-based; details: Mycobacterium tuberculosis, 672 h, read-out: Diameter of zone of inhibition against H37Rv (NCFT/TB/537), wells of 8 mm, 50 µg/ml test compound, 25 µg/ml standard drug, 4 weeks, NA = no activity
[12] = tested on: C. albicans; assay: microbe, parasite or virus in culture; details: Candida albicans, 48 h, read-out: MIC C. albicans
[13] = tested on: S. typhi; assay: Tube dilution MIC; type: cell-based; details: Salmonella enterica, 24 h, read-out: MIC S. typhi
[14] = tested on: B. subtilis; assay: MBC by subculturing; type: cell-based
Description: as §1

[15] = tested on: S. aureus; assay: MBC by subculturing; type: cell-based; details: Staphylococcus aureus
Description: as §1

[16] = tested on: B. cereus; assay: MBC by subculturing; type: cell-based
Description: as §1

[17] = tested on: S. typhi; assay: MBC by subculturing; type: cell-based; details: Salmonella enterica, read-out: MBC S. typhi
Description: as §1

[18] = tested on: E. coli; assay: MBC by subculturing; type: cell-based; details: Escherichia coli
Description: as §1

[19] = tested on: M. tuberculosis H37Rv; assay: Minimum lethal concentration (MLC); type: cell-based; details: Mycobacterium tuberculosis, NA = no activity, read-out: MLC against M. tuberculosis H37Rv
[20] = tested on: MCF7 (human breast cancer) cell line; assay: Sulforhodamine-B (SRB) cytotoxicity assay; type: cell-based
[21] = molecular target: mycobacterial isocitrate lyase (Mycobacterium tuberculosis, UniProt P9WKK7); assay: Mycobacterial isocitrate lyase (ICL) assay; type: biochemical, M. tuberculosis H37Rv; details: read-out: Percent inhibition of enzyme, M. ICL activity
Description: The compounds found potent in in vivo evaluation were assayed for inhibition of mycobacterial enzymes viz., isocitrate lyase, pantothenate synthetase and chorismate mutase.
Isocitrate lyase activity was assayed according to the protocol reported by Dixon and Kornberg (glyoxylate phenyl hydrazone formation) at 10 μM of the compounds.

[22] = In vivo LD50, ED50 and toxic dose in mice models; details: mouse, dose that killed 50% of the mice population within the group
Description: The LD50 and ED50 were determined for the active compounds in mice models infected with Mycobacterium H37Rv (Table 4). […] Thus, ED50 of 1.34 mg/kg was considered safe for each of the compounds. It was observed that this dose was effective and safe for mice in different groups before infecting the mice models with specific TB bacteria as no mortality of any single animal was recorded.
The LD50 (lethal dose) and ED50 (optimum/effective dose) doses were determined for the active compounds in mice models infected with Mycobacterium H37Rv via ethical permission no., NCFT/EC/16/2313 assigned to Collaborative Research Group (CRG), NCFT, New Delhi, India.

[23] = HCT-116, SRB assay, HCT116 cell line, read-out: IC50 HCT116
[24] = Aspergillus niger; read-out: MFC A. niger
[25] = Candida albicans; read-out: MFC C. albicans
[26] = Bacillus subtilis; read-out: MBC B. subtilis
[27] = Bacillus cereus; read-out: MBC B. cereus
[28] = SRB assay, MCF7 cell line, read-out: IC50 MCF7
[29] = Aspergillus niger, read-out: MFC A. niger
[30] = Candida albicans, read-out: MFC C. albicans
[31] = Bacillus subtilis, read-out: MBC B. subtilis
[32] = Bacillus cereus, read-out: MBC B. cereus

Sequence of mycobacterial isocitrate lyase (P9WKK7 whole entry): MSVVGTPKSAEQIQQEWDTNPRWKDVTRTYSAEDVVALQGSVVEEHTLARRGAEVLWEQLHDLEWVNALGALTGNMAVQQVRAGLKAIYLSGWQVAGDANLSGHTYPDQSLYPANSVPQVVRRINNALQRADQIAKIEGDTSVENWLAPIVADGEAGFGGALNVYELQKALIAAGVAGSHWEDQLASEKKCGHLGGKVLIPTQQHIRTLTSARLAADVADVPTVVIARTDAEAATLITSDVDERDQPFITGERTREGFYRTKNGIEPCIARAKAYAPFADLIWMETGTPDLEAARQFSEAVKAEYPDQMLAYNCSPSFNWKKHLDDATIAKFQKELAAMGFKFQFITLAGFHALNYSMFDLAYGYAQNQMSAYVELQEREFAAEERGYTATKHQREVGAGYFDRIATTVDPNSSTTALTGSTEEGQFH

SMILES: O=C(CSc1nc2ccccc2n1C(=O)c1ccccc1)Nc1ccc(Br)cc1 [Compound 9, 2-(1-Benzoyl-1H-benzo[d]imidazol-2-ylthio)-N-(4-bromophenyl)acetamide]
- MIC [1]: 27 µM (≈ 12.6 µg/mL)
- IC50 [2, 23]: 64.3 µM
- MFC [3, 24]: > 50 µg/mL
- MFC [4, 25]: 50 µg/mL (≈ 107 µM)
- MIC [5]: 27 µM (≈ 12.6 µg/mL)
- MIC [6]: 17.8 µg/mL (≈ 38.2 µM)
- MIC [7]: 27 µM (≈ 12.6 µg/mL)
- MIC against Gram positive as well as Gram negative bacterial species [8]: 0.027 µM/ml
- MIC [9]: 27 µM (≈ 12.6 µg/mL)
- MIC [10]: 27 µM (≈ 12.6 µg/mL)
- zone of inhibition at 50 µg/mL [11]: 8 mm
- MIC [12]: 13 µM (≈ 6.06 µg/mL)
- MIC [13]: 27 µM (≈ 12.6 µg/mL)
- MBC [14, 26]: > 50 µg/mL
- MBC [15]: > 50 µg/mL
- MBC [16, 27]: > 50 µg/mL
- MBC [17]: 50 µg/mL (≈ 107 µM)
- MBC [18]: > 50 µg/mL
- MBC [19]: 28.1 µg/mL (≈ 60.3 µM)
- IC50 [20, 28]: > 214 µM

SMILES: O=C(CSc1nc2ccccc2n1C(=O)c1ccccc1)Nc1ccccc1Br [Compound 7, 2-(1-Benzoyl-1H-benzo[d]imidazol-2-ylthio)-N-(2-bromophenyl)acetamide]
- MIC [1]: 27 µM (≈ 12.6 µg/mL)
- IC50 [2, 23]: 96.5 µM
- MFC [3, 24]: > 50 µg/mL
- MFC [4, 25]: 50 µg/mL (≈ 107 µM)
- MIC [5]: 27 µM (≈ 12.6 µg/mL)
- MIC [6]: 15 µg/mL (≈ 32.2 µM)
- MIC [7]: 27 µM (≈ 12.6 µg/mL)
- MIC against Gram positive as well as Gram negative bacterial species [8]: 0.027 µM/ml
- MIC [9]: 27 µM (≈ 12.6 µg/mL)
- MIC [10]: 27 µM (≈ 12.6 µg/mL)
- zone of inhibition at 50 µg/mL [11]: 10 mm
- MIC [12]: 27 µM (≈ 12.6 µg/mL)
- MIC [13]: 27 µM (≈ 12.6 µg/mL)
- MBC [14, 26]: > 50 µg/mL
- MBC [15]: 50 µg/mL (≈ 107 µM)
- MBC [16, 27]: > 50 µg/mL
- MBC [17]: > 50 µg/mL
- MBC [18]: 50 µg/mL (≈ 107 µM)
- MBC [19]: 28 µg/mL (≈ 60 µM)
- IC50 [20, 28]: 55.8 µM

SMILES: O=C(CSc1nc2ccccc2n1C(=O)c1ccccc1)Nc1ccc(Cl)cc1 [Compound 15, 2-(1-Benzoyl-1H-benzo[d]imidazol-2-ylthio)-N-(4-chlorophenyl)acetamide]
- MIC [1]: 30 µM (≈ 12.7 µg/mL)
- IC50 ([2]; HCT-116, read-out: IC50 HCT116): 59.4 µM
- MFC [3, 29]: > 50 µg/mL
- MFC [4, 30]: > 50 µg/mL
- MIC [5]: 30 µM (≈ 12.7 µg/mL)
- inhibition at 10 µM [21]: 61.6%
- MIC [6]: 12.5 µg/mL (≈ 29.6 µM)
- MIC [7]: 30 µM (≈ 12.7 µg/mL)
- MIC [9]: 30 µM (≈ 12.7 µg/mL)
- LD50 [22]: 2.67 mg/kg
- MIC [10]: 30 µM (≈ 12.7 µg/mL)
- zone of inhibition at 50 µg/mL [11]: > 20 mm
- MIC [12]: 30 µM (≈ 12.7 µg/mL)
- MIC [13]: 59 µM (≈ 24.9 µg/mL)
- MBC [14, 31]: > 50 µg/mL
- MBC [15]: 50 µg/mL (≈ 119 µM)
- MBC [16, 32]: > 50 µg/mL
- MBC [17]: > 50 µg/mL
- MBC [18]: 50 µg/mL (≈ 119 µM)
- MBC [19]: 25 µg/mL (≈ 59.3 µM)
- IC50 ([20]; MCF7, read-out: IC50 MCF7): 95 µM

SMILES: Cc1cccc(C)c1NC(=O)CSc1nc2ccccc2n1C(=O)c1ccccc1 [Compound 13, 2-(1-Benzoyl-1H-benzo[d]imidazol-2-ylthio)-N-(2,6-dimethylphenyl)acetamide]
- MIC [1]: 30 µM (≈ 12.5 µg/mL)
- IC50 ([2]; HCT-116, read-out: IC50 HCT116): 96.3 µM
- MFC [3, 29]: > 50 µg/mL
- MFC [4, 30]: 25 µg/mL (≈ 60.2 µM)
- MIC [5]: 30 µM (≈ 12.5 µg/mL)
- inhibition at 10 µM [21]: 56.5%
- MIC [6]: 12.5 µg/mL (≈ 30.1 µM)
- MIC [7]: 30 µM (≈ 12.5 µg/mL)
- MIC [9]: 30 µM (≈ 12.5 µg/mL)
- LD50 [22]: 2.14 mg/kg
- MIC [10]: 30 µM (≈ 12.5 µg/mL)
- zone of inhibition at 50 µg/mL [11]: > 20 mm
- MIC [12]: 15 µM (≈ 6.23 µg/mL)
- MIC [13]: 30 µM (≈ 12.5 µg/mL)
- MBC [14, 31]: > 50 µg/mL
- MBC [15]: 50 µg/mL (≈ 120 µM)
- MBC [16, 32]: > 50 µg/mL
- MBC [17]: > 50 µg/mL
- MBC [18]: 50 µg/mL (≈ 120 µM)
- MBC [19]: 25 µg/mL (≈ 60.2 µM)
- IC50 ([20]; MCF7, read-out: IC50 MCF7): 135 µM
